Assay results published in ChEMBL document CHEMBL2176970, “Discovery and optimization of a series of 3-(3-phenyl-3H-imidazo[4,5-b]pyridin-2-yl)pyridin-2-amines: orally bioavailable, selective, and potent ATP-independent Akt inhibitors” (J Med Chem, 2012).
The source made the active and inactive calls. No cut-off for these calls is given here.

Assays:
[1] = Half life in male CD1 mouse liver microsomes at 1 uM by LC/MS/MS; format: ADME, Microsome
[2] = molecular target: cAMP-dependent protein kinase catalytic subunit PRKX (Homo sapiens) (UniProt P51817); test: Inhibition of PRKX using fluorescent labelled substrate at 5 uM by caliper method
[3] = molecular target: Serine/threonine-protein kinase Sgk1 (Homo sapiens) (UniProt O00141); test: Inhibition of SGK1 using fluorescent labelled substrate at 5 uM by caliper method
[4] = molecular target: Angiopoietin-1 receptor (Homo sapiens) (UniProt Q02763); test: Inhibition of TIE2 using fluorescent labelled substrate at 5 uM by caliper method
[5] = molecular target: Protein kinase C theta type (Homo sapiens) (UniProt Q04759); test: Inhibition of PKCtheta using fluorescent labelled substrate at 5 uM by caliper method
[6] = molecular target: Ribosomal protein S6 kinase beta-1 (Homo sapiens) (UniProt P23443); test: Inhibition of P70S6KB1 using fluorescent labelled substrate at 5 uM by caliper method
[7] = molecular target: Rho-associated protein kinase 1 (Homo sapiens) (UniProt Q13464); test: Inhibition of ROCK1 using fluorescent labelled substrate at 5 uM by caliper method
[8] = molecular target: Serine/threonine-protein kinase Sgk2 (Homo sapiens) (UniProt Q9HBY8); test: Inhibition of SGK2 using fluorescent labelled substrate at 5 uM by caliper method
[9] = Half life in human liver microsomes at 1 uM by LC/MS/MS; format: ADME, Microsome
[10] = molecular target: Proto-oncogene tyrosine-protein kinase receptor Ret (Homo sapiens) (UniProt P07949); test: Inhibition of RET using fluorescent labelled substrate at 5 uM by caliper method
[11] = molecular target: Ribosomal protein S6 kinase alpha-3 (Homo sapiens) (UniProt P51812); test: Inhibition of RSK2 using fluorescent labelled substrate at 5 uM by caliper method
[12] = molecular target: T1, RAC-alpha serine/threonine-protein kinase (Homo sapiens, UniProt P31749); settings: Sf9
[13] = molecular target: T1, RAC-alpha serine/threonine-protein kinase; test: Inhibition of Akt 1 in human A2780 cells assessed as phosphorylation of Akt at T308 after 2 hrs by Western Blot analysis; format: cell-based
[14] = molecular target: Protein kinase C alpha type (Homo sapiens) (UniProt P17252); test: Inhibition of PKCalpha using fluorescent labelled substrate at 5 uM by caliper method
Cytochrome P450 2C9 = Cytochrome P450 2C9 (Homo sapiens, UniProt P11712); test: Inhibition of CYP2C9 in human liver microsomes using tolbutamide as substrate after 10 mins; format: ADME, Microsome
[15] = molecular target: Serine/threonine-protein kinase PAK 3 (Homo sapiens) (UniProt O75914); test: Inhibition of PAK3 using fluorescent labelled substrate at 5 uM by caliper method
[16] = molecular target: T1, RAC-alpha serine/threonine-protein kinase; test: Inhibition of Akt1 in human AN3CA cells assessed as phosphorylation of Akt at S473 after 2 hrs by Western Blot analysis; format: cell-based, AN3-CA
Cytochrome P450 2C19 = Cytochrome P450 2C19 (Homo sapiens, UniProt P33261); test: Inhibition of CYP2C19 in human liver microsomes using S-mephenytoin as substrate after 10 mins; format: ADME, Microsome
[17] = molecular target: RAC-gamma serine/threonine-protein kinase (Homo sapiens, UniProt Q9Y243); test: Binding affinity to Akt3 (1 to 479) expressed in Sf9 cells assessed as change in melting temperature at 15 uM
[18] = molecular target: Serine/threonine-protein kinase PAK 2 (Homo sapiens) (UniProt Q13177); test: Inhibition of PAK2 using fluorescent labelled substrate at 5 uM by caliper method
[19] = molecular target: T1, RAC-alpha serine/threonine-protein kinase; test: Inhibition of Akt 1 in human AN3CA cells assessed as phosphorylation of Akt at T308 after 2 hrs by Western Blot analysis; format: cell-based, AN3-CA
AN3-CA = test: Antiproliferative activity against human AN3CA cells after 72 hrs by MTS assay; format: functional, cell-based
[20] = molecular target: Cyclin-dependent kinase 2/cyclin E (Homo sapiens) (UniProt P24864+P24941+O96020); test: Inhibition of CDK2/cyclinE using fluorescent labelled substrate at 5 uM by caliper method; format: protein-complex assay
Cytochrome P450 3A4 = Cytochrome P450 3A4 (Homo sapiens, UniProt P08684); test: Inhibition of CYP3A4 in human liver microsomes using midazolam as substrate after 10 mins; format: ADME, Microsome
[21] = molecular target: Protein kinase C gamma type (Homo sapiens) (UniProt P05129); test: Inhibition of PKCgamma using fluorescent labelled substrate at 5 uM by caliper method
Cytochrome P450 2C8 = molecular target: T2, Cytochrome P450 2C8 (Homo sapiens, UniProt P10632); test: Inhibition of CYP2C8 in human liver microsomes using paclitaxel as substrate after 10 mins; format: ADME, Microsome
T2 sequence (P10632 whole entry): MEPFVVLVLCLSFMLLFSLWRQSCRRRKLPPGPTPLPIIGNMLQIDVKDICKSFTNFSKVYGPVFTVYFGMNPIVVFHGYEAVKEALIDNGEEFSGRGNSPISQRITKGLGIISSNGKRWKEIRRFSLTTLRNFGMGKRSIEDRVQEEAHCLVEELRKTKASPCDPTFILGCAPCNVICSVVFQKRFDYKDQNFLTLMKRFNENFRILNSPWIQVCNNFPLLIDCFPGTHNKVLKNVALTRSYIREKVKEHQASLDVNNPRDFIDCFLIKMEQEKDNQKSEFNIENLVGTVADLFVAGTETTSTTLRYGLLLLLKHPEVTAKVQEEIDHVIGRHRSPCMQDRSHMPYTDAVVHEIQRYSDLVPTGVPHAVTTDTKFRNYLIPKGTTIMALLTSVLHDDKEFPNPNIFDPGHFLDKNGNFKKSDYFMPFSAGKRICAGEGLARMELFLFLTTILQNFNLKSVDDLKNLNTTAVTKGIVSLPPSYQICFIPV

[22] = molecular target: Insulin receptor (Homo sapiens) (UniProt P06213); test: Inhibition of INSR using fluorescent labelled substrate at 5 uM by caliper method
[23] = molecular target: 3-phosphoinositide-dependent protein kinase 1 (Homo sapiens) (UniProt O15530); test: Inhibition of PDK1 using fluorescent labelled substrate at 5 uM by caliper method
[24] = molecular target: T1, RAC-alpha serine/threonine-protein kinase; test: Inhibition of Akt1 in human A2780 cells assessed as phosphorylation PRAS40 at T246 after 2 hrs by Western Blot analysis; format: cell-based
[25] = molecular target: MAP kinase-activated protein kinase 2 (Homo sapiens) (UniProt P49137); test: Inhibition of MAPKAPK2 using fluorescent labelled substrate at 5 uM by caliper method
[26] = molecular target: Macrophage colony-stimulating factor 1 receptor (Homo sapiens) (UniProt P07333); test: Inhibition of FMS using fluorescent labelled substrate at 5 uM by caliper method
[27] = molecular target: Ribosomal protein S6 kinase alpha-1 (Homo sapiens) (UniProt Q15418); test: Inhibition of RSK1 using fluorescent labelled substrate at 5 uM by caliper method
[28] = molecular target: RAC-beta serine/threonine-protein kinase (Homo sapiens, UniProt P31751); test: Inhibition of Akt2 (1 to 481) expressed in Sf9 cells using biotin-GRPRTSSFAEG as substrate after 20 mins by Alpha-screen assay
[29] = molecular target: T1, RAC-alpha serine/threonine-protein kinase; test: Inhibition of Akt1 in human AN3CA cells assessed as phosphorylation PRAS40 at T246 after 2 hrs by Western Blot analysis; format: cell-based, AN3-CA

T1 sequence (P31749 whole entry): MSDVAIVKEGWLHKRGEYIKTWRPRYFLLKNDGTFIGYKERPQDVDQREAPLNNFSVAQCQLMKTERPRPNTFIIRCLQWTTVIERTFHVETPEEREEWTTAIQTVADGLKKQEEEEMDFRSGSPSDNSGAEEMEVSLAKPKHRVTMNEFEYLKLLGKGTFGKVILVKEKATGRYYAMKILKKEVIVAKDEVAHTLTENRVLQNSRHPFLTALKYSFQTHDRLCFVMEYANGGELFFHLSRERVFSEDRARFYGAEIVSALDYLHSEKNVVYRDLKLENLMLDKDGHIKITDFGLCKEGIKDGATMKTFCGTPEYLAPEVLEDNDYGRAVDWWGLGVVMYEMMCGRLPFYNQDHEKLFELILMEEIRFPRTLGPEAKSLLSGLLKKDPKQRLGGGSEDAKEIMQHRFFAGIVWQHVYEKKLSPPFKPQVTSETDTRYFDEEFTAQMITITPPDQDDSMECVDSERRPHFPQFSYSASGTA
Cytochrome P450 2C9, sequence (P11712 whole entry): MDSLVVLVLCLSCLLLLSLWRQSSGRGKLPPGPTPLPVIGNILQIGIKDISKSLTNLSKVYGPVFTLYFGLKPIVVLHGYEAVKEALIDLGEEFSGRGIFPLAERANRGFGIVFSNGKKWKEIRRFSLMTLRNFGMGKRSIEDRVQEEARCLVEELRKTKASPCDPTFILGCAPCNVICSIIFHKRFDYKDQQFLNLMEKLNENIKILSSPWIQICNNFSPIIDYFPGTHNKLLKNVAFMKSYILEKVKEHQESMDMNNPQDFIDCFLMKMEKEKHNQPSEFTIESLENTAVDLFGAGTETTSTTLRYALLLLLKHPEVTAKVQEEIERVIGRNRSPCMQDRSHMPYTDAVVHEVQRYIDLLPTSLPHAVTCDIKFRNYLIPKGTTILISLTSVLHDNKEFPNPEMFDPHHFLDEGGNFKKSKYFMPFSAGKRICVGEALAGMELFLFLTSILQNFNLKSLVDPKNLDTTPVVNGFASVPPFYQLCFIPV
MAP kinase-activated protein kinase 2 (Homo sapiens), sequence (P49137 whole entry, looked up): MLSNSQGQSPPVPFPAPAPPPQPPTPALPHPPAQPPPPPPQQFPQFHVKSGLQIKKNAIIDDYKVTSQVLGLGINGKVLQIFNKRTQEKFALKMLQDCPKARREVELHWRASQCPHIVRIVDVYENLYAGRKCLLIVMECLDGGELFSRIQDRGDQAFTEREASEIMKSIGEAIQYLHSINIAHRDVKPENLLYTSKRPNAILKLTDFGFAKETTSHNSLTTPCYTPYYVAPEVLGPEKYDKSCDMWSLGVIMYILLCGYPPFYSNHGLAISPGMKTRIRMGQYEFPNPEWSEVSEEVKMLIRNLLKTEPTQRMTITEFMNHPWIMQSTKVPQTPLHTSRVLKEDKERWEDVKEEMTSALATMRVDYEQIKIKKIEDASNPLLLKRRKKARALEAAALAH
Ribosomal protein S6 kinase beta-1 (Homo sapiens), sequence (P23443 whole entry, looked up): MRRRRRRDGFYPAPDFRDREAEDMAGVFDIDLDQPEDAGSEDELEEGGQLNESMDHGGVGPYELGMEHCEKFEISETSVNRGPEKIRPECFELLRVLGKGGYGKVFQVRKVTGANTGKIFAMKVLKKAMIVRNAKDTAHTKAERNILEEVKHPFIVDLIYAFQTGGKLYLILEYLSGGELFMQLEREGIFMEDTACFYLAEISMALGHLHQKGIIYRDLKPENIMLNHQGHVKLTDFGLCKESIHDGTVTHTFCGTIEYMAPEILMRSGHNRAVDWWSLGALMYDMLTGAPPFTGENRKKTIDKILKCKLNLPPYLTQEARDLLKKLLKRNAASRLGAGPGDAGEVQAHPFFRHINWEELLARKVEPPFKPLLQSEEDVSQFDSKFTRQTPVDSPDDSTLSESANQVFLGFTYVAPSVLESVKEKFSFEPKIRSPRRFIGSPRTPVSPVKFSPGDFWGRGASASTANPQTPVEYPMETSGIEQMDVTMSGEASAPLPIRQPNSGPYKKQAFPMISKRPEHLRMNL
Cytochrome P450 3A4, sequence (P08684 whole entry): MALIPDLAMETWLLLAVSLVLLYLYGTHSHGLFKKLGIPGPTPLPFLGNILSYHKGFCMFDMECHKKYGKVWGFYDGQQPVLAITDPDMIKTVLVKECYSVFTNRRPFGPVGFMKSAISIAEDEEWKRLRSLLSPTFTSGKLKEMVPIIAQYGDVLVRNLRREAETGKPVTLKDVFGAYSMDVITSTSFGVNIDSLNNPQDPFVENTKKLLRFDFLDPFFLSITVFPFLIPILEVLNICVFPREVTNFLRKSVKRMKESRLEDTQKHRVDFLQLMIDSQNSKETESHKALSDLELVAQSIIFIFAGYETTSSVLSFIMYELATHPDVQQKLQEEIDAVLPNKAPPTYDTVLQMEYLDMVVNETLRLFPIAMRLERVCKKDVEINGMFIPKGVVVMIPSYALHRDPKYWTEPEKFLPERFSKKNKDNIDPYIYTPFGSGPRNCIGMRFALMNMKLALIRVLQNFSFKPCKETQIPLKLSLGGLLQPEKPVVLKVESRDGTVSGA
3-phosphoinositide-dependent protein kinase 1 (Homo sapiens), sequence (O15530 whole entry): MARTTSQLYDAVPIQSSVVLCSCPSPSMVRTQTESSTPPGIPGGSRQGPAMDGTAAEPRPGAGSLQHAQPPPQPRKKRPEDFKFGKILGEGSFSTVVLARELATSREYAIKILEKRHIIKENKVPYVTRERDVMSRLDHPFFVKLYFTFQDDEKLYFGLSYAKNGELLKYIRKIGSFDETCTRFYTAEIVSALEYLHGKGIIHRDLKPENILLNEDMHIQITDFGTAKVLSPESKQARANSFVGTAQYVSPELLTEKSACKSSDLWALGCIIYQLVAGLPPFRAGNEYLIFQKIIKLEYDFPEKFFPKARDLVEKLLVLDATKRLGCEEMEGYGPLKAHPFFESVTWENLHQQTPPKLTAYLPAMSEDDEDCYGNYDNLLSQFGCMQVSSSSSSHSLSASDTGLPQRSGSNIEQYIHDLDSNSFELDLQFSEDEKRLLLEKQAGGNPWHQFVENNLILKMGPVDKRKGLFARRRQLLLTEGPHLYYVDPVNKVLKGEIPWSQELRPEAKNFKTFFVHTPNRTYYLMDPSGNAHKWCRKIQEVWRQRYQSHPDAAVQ
RAC-beta serine/threonine-protein kinase, sequence (P31751 whole entry): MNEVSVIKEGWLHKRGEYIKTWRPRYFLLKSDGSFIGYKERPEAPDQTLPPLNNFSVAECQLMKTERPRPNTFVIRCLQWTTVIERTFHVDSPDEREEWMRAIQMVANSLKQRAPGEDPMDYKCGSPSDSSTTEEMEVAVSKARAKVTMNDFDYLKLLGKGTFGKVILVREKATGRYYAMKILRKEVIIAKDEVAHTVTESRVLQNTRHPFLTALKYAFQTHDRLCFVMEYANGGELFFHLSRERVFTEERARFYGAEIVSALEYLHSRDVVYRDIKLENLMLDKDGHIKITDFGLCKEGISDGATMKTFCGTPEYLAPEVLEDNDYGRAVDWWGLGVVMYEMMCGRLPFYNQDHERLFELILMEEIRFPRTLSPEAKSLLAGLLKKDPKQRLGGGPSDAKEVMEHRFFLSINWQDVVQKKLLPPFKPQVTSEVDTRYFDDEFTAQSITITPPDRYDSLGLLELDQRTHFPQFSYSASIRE

Structure (SMILES) | half-life at 1 µM [1] [h] | inhibition [2] [%] | inhibition [3] [%] | inhibition [4] [%] | inhibition [5] [%] | inhibition [6] [%] | inhibition [7] [%] | inhibition [8] [%] | half-life at 1 µM [9] [h] | inhibition [10] [%] | inhibition [11] [%] | ΔTm [12] [°C] | IC50 [13] [µM] | inhibition [14] [%] | IC50 (Cytochrome P450 2C9) [µM] | inhibition [15] [%] | IC50 [16] [µM] | IC50 (Cytochrome P450 2C19) [µM] | deltaTm [17] | inhibition [18] [%] | other results
Nc1ncccc1-c1nc2cccnc2n1-c1ccc(CNC(=O)c2ccccc2)cc1 | > 1 | > 25 | > 25 | > 25 | > 25 | > 25 | > 25 | > 25 | 1 | > 25 | > 25 | 6.4 | 0.37 | > 25 | > 10 | > 25 | 5.6 | > 10 | inactive | > 25 | IC50 [19]: > 10 µM; IC50 (AN3-CA): > 100 µM; inhibition [20]: > 25%; IC50 (Cytochrome P450 3A4): > 10 µM; inhibition [21]: > 25%; IC50 (Cytochrome P450 2C8): > 10 µM; inhibition [22]: > 25%; inhibition [23]: > 25%; IC50 [24]: > 10 µM; inhibition [25]: > 25%; inhibition [26]: > 25%; inhibition [27]: > 25%; IC50 [28]: 0.66 µM; IC50 [29]: > 10 µM
Nc1ncccc1-c1nc2cccnc2n1-c1ccc(CC(=O)Nc2ccccc2)cc1 | > 1 | > 25 | > 25 | > 25 | > 25 | > 25 | > 25 | > 25 | 0.793 | > 25 | > 25 | 6.7 | 1.3 | > 25 | > 10 | > 25 | 2.5 | > 10 | inactive | > 25 | IC50 [19]: > 10 µM; IC50 (AN3-CA): 70 µM; inhibition [20]: > 25%; IC50 (Cytochrome P450 3A4): > 10 µM; inhibition [21]: > 25%; IC50 (Cytochrome P450 2C8): > 10 µM; inhibition [22]: > 25%; inhibition [23]: > 25%; IC50 [24]: > 10 µM; inhibition [25]: > 25%; inhibition [26]: > 25%; inhibition [27]: > 25%; IC50 [28]: 0.7 µM; IC50 [29]: > 10 µM
